A value given as a limit tells only on which side of the number the result lay.

The series can be described thus: Solubility of RAPA in the drug solvent of the stock solution. The following applies: organic solvent or mixture; drug solvent of two or more solvents (absolute ethanol and latent solvent). It counts as physicochemical. An excerpt:
In the RAPA self-microemulsifying injection of the present disclosure, the drug solvent includes absolute ethanol and a latent solvent, and the latent solvent is one or more selected from the group consisting of propylene glycol (PG), polyethylene glycol (PEG) 300, and PEG 400. The drug solvent of the present disclosure is a mixed solvent of two or more solvents in different proportions to dissolve RAPA, which can greatly improve the solubility of RAPA.

For `CO[C@H]1C[C@@H]2CC[C@@H](C)[C@@](O)(O2)C(=O)C(=O)N2CCCC[C@H]2C(=O)O[C@H]([C@H](C)C[C@@H]2CC[C@@H](O)[C@H](OC)C2)CC(=O)[C@H](C)/C=C(\C)[C@@H](O)[C@@H](OC)C(=O)[C@H](C)C[C@H](C)/C=C/C=C/C=C/1C` [RAPA, rapamycin], the solubility (as a rule, how much of the substance goes into solution per volume) is no more than 60 mg/mL.
